Source: patent publication US10351559B2, “Maleate salts of a B-RAF kinase inhibitor, crystalline forms, methods of preparation, and uses therefore” (BeiGene, Ltd., priority 2015, dated 2019)
Counter-ions that a name gives are not always drawn. Like-named read-outs stand apart in the source and are kept apart here.

Tests used:
[1] = pharmacokinetic comparison of sesqui-maleate and free base, oral; assay type: in vivo, Beagle dogs; details: dogs
Description: Drugs and reagents: Crystalline Form A* of Compound 1 Sesqui-Maleate with particle sizes of D90=4.1 um, D10=1.5 um, D50=2.4 um after micronization. The material content (purity) was not less than 98.0%.
Experiment animals: Beagle dogs, male and female.
Pharmaceutical preparation: Weigh the appropriate amount of each substance and disperse in 0.5% sodium carboxymethyl cellulose (for the free base of Compound 1) or 0.5% methyl cellulose solution (for Compound 1 Sesqui-Maleate). Prepare a suspension at the desired concentration of Compound 1. All the doses and concentrations of Compound 1 were calculated with free base in this study.
Administration and sample collection: The dosing solutions will be freshly prepared prior to dose administration. The actual body weights and actual volume injected will be recorded accordingly. The dogs were fasted overnight and were allowed to intake food four hours after dosing. Each suspension was administrated orally to dogs at a dose ranged from 0.5 to 15 mg/kg. Blood samples (˜1.0 mL) will be collected at pre-dose and at different times up to 36 hours postdosing via cephalic vein plexus. Whole blood will be processed by centrifugation and plasma samples will be collected and kept at freezer prior to analysis. Plasma samples were processed by protein precipitation. Concentrations of Compound 1 in the plasma samples were determined using a validated liquid chromatography-tandem mass spectrometry (LC-MS/MS) method. The plasma concentration-time data were analyzed using a non-compartmental model using Pharsight WinNonlin.

RET = molecular target: T1, RET (Homo sapiens, UniProt P07949); experiment: HTRF KinEASE-TK kinase assay; assay type: biochemical
T1 construct: purchased Life Technologies
T1 sequence (P07949 29-1114): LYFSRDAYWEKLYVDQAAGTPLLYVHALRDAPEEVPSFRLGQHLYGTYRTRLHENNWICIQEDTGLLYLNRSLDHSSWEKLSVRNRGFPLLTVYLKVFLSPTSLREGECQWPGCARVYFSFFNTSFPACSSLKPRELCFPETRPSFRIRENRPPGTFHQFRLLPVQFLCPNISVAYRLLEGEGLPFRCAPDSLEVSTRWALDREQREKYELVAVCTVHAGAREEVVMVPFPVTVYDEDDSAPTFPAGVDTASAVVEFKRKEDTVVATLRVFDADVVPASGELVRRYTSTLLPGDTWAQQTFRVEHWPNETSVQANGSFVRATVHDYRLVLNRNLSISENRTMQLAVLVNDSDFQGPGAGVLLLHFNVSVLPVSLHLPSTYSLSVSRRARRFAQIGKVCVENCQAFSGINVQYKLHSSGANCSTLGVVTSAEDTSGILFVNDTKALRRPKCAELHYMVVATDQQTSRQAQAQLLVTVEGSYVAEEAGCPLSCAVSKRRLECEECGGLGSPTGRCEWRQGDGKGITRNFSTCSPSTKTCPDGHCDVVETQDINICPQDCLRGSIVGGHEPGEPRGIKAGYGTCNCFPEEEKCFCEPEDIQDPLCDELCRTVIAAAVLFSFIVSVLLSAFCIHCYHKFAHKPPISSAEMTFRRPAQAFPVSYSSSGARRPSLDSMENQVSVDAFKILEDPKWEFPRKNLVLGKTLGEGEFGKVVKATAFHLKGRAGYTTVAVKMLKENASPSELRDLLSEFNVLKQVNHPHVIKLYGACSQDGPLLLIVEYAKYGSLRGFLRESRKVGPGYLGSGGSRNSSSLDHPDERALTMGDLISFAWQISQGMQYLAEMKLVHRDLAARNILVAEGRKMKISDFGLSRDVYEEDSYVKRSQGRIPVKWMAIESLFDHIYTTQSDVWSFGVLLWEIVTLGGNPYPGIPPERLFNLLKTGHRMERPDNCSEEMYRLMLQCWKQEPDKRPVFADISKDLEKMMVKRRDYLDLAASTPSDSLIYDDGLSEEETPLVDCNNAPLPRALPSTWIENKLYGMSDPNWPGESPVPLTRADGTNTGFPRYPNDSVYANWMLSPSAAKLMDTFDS
Method: (§1) Crystalline Form A* of Compound 1 Sesqui-Maleate was tested against recombinant EGFR/EPHA2/BTK (from Carna Biosciences), ITK/TEC/SRC/PDGFR-beta/TXK/FLT3/VEGFR2/RET (from Life Technologies), and HER2 (aa676-1255, recombinant protein purified from insect expression system) in HTRF KinEASE-TK assay from Cisbio Bioassays according to the manufacturer's instructions. The assay was carried out in a reaction mixture containing kinases, ATP at KM concentration, biotinylated peptide substrate (61TK0BLC, Cisbio Bioassays) and Crystalline Form A* of Compound 1 Sesqui-Maleate. The kinase was incubated with Crystalline Form A* of Compound 1 Sesqui-Maleate at RT for 1 hr or 2 hr (for EGFR) and the reaction was initiated by the addition of ATP and substrate. After reaction, stop/detection solution was added according to the manufacture's instruction. The stop/detection solution contained Eu+ cryptate conjugated antiphosphotyrosine antibody (61T66kLB, CisBio Bioassays) and Streptavidin-XL665 (610SAXLB, CisBio Bioassays) in buffer containing 25 mM Tris pH7.4, 400 mM KF, 50 mM EDTA, 0.01% BSA, 0.01% Triton X-100. The TR-FRET signals (ratio of fluorescence emission at 665 nm over emission at 620 nm with excitation at 337 nm wavelength) were recorded on a PHERAstar FS plate reader (BMG Labtech) after 1 hr incubation. Phosphorylation of biotinylated peptide substrate led to the binding of both Eu+ cryptate conjugated antiphosphotyrosine antibody and streptaviding-XL665 to the biotinylated peptide. The close proximity of the donor (Eu+ cryptate) and acceptor (XL665) fluorophore led to a high degree of fluorescence resonance energy transfer from the donor fluorophore (at 620 nm) to the acceptor fluorophore (at 665 nm). The IC50 for Crystalline Form A* of Compound 1 Sesqui-Maleate was derived from fitting the dose-response % inhibition data to the four-parameter logistic model by Graphpad Prism software.

SRC = molecular target: T2, SRC (Homo sapiens, UniProt P12931); experiment: HTRF KinEASE-TK kinase assay; assay type: biochemical
T2 construct: purchased Life Technologies
T2 sequence (P12931 whole entry): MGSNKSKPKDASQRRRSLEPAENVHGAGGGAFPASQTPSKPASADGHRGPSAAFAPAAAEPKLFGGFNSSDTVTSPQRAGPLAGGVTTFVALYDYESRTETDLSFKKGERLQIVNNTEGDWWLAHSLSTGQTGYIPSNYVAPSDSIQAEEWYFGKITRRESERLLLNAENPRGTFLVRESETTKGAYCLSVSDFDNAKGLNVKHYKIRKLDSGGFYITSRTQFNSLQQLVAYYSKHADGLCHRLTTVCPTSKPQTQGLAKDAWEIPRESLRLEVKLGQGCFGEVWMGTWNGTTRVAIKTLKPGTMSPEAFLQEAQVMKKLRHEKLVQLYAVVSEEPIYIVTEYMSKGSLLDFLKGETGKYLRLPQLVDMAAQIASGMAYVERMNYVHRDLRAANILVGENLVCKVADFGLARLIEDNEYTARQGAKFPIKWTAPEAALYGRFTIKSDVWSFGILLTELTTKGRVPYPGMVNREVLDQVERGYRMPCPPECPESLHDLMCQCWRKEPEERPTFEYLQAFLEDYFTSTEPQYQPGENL
Method: as §1

FLT3 = molecular target: T3, FLT3 (Homo sapiens, UniProt P36888); experiment: HTRF KinEASE-TK kinase assay; assay type: biochemical
T3 construct: purchased Life Technologies
T3 sequence (P36888 27-993): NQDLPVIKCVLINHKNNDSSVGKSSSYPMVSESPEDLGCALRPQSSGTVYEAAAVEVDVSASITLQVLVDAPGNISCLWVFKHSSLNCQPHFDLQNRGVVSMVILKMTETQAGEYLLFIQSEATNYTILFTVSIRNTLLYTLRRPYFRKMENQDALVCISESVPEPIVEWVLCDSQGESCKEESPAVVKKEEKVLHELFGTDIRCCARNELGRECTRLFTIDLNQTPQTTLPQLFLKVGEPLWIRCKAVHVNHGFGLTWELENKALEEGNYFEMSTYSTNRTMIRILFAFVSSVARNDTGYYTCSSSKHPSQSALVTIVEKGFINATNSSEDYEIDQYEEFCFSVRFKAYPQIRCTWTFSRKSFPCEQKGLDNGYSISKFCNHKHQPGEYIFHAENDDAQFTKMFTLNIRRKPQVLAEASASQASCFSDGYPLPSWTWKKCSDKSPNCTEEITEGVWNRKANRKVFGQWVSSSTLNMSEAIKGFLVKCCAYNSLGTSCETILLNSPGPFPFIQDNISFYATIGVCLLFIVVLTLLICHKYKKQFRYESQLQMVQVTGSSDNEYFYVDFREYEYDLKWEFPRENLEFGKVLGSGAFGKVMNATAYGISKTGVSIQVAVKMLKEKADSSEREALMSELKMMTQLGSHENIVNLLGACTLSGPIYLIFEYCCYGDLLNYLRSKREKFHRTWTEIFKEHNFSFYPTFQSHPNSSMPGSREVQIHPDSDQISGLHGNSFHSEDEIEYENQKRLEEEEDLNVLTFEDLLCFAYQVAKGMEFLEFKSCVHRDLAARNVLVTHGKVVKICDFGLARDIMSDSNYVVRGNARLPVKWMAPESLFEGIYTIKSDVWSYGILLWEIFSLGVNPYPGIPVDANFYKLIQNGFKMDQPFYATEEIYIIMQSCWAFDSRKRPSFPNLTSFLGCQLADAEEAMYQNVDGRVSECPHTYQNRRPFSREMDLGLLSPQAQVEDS
Method: as §1

EPHA2 = molecular target: T4, EPHA2 (Homo sapiens, UniProt P29317); experiment: HTRF KinEASE-TK kinase assay; assay type: biochemical
T4 construct: purchased Carna Biosciences
Method: as §1

BTK = molecular target: T5, BTK (Homo sapiens, UniProt Q06187); experiment: HTRF KinEASE-TK kinase assay; assay type: biochemical
T5 construct: purchased Carna Biosciences
T5 sequence (Q06187 whole entry): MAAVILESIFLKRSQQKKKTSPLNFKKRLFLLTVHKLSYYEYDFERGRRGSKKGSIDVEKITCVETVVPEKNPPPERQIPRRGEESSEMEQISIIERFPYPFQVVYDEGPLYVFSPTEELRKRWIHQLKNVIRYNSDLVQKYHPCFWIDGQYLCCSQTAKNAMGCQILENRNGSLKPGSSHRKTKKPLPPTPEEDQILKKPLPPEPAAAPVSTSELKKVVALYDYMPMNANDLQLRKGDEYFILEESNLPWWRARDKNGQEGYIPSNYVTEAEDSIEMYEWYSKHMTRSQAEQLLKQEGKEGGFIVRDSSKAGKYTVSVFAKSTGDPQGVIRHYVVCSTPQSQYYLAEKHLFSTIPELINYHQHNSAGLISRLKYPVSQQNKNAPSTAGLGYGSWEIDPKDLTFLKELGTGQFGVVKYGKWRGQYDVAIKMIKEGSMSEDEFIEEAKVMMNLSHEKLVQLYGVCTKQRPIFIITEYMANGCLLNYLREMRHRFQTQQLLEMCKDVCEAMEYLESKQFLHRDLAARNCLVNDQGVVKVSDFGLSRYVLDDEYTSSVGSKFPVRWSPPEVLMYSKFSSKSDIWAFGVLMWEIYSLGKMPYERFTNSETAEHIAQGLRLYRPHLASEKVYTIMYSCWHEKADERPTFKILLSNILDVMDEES
Method: as §1

TXK = molecular target: T6, TXK (Homo sapiens, UniProt P42681); experiment: HTRF KinEASE-TK kinase assay; assay type: biochemical
T6 construct: purchased Life Technologies
T6 sequence (P42681 whole entry): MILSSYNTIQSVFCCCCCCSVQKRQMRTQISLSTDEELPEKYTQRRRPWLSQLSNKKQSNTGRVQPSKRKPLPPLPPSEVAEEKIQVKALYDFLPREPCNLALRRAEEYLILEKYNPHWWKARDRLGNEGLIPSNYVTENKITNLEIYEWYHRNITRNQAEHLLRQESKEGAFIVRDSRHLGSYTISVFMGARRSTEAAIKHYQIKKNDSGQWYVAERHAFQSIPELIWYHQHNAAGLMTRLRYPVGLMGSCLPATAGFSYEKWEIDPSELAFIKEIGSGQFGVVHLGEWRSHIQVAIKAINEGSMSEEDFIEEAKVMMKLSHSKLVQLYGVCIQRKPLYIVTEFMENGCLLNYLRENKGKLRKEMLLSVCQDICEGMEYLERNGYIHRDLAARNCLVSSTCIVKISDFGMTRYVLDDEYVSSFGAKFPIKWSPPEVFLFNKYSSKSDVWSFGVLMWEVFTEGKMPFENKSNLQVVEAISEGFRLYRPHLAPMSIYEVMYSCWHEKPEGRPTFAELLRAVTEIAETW
Method: as §1

ITK = molecular target: T7, ITK (Homo sapiens, UniProt Q08881); experiment: HTRF KinEASE-TK kinase assay; assay type: biochemical
T7 construct: purchased Life Technologies
T7 sequence (Q08881 whole entry): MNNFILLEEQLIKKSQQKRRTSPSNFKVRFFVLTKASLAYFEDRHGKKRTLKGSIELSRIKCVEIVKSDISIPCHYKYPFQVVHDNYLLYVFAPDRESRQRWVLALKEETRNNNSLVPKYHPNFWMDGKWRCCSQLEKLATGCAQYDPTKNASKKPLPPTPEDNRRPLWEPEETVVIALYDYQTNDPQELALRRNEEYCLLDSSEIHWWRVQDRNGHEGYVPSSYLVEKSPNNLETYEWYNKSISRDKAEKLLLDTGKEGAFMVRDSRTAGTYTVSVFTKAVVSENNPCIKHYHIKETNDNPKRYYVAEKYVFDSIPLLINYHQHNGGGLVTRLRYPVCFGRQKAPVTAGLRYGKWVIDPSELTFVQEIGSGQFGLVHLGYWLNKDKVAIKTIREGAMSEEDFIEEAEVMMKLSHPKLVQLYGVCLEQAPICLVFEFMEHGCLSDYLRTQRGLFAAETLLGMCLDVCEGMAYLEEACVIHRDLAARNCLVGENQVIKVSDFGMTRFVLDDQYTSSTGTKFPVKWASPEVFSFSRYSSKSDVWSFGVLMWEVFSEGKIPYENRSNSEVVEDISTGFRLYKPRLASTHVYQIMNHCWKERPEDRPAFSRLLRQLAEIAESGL
Method: as §1

TEC = molecular target: T8, TEC (Homo sapiens, UniProt P42680); experiment: HTRF KinEASE-TK kinase assay; assay type: biochemical
T8 construct: purchased Life Technologies
T8 sequence (P42680 whole entry): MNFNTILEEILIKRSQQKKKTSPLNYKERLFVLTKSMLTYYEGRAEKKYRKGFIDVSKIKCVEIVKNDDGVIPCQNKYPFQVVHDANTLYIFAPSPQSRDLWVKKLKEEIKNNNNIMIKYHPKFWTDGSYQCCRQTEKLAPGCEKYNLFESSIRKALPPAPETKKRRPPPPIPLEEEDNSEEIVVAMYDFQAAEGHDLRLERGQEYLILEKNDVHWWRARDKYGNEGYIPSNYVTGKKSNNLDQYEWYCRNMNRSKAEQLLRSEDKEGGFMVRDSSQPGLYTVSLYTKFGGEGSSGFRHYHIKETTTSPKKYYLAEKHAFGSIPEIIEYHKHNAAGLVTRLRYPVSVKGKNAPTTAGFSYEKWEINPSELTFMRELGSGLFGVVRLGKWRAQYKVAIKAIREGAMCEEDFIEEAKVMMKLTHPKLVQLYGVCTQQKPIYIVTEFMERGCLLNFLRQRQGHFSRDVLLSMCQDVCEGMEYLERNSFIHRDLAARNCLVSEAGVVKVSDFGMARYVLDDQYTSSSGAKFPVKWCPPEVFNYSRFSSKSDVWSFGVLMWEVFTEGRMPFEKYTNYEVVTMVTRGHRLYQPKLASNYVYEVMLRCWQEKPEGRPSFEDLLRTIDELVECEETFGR
Method: as §1

PDGFR-beta = molecular target: T9, PDGFR-beta (Homo sapiens, UniProt P09619); experiment: HTRF KinEASE-TK kinase assay; assay type: biochemical
T9 construct: purchased Life Technologies
Method: as §1

[2] = tested on: BRAF V600E and KRAS cancers; experiment: Phase I clinical study; assay type: in vivo, human; details: capsules, 5-50 mg single doses, 25 subjects
aqueous solubility study = assay type: physicochemical; details: sesqui-maleate salt
[3] = oral dose 1 mg/kg (free base), listed as Sesqui-Maleate (Micronized Crystalline Form A*), sesqui-maleate salt, 1 mg/kg

SMILES: O=C1CCc2c(Oc3ccc4c(c3)[C@@H]3[C@H](O4)[C@H]3c3nc4ccc(C(F)(F)F)cc4[nH]3)ccnc2N1 [5-(((1R,1aS,6bR)-1-(6-(trifluoromethyl)-1H-benzo[d]imidazol-2-yl)-1a,6b-dihydro-1H-cyclopropa[b]benzofuran-5-yl)oxy)-3,4-dihydro-1,8-naphthyridin-2(1H)-one sesqui-maleate salt]
- Cmax ([1]; both sexes, beagle, dog, plasma, po, 0.5 mg/kg, oral dose 0.5 mg/kg, read-out: Cmax): 342 ng/mL
- Cmax ([1]; both sexes, beagle, dog, plasma, po, 1.5 mg/kg, oral dose 1.5 mg/kg, read-out: Cmax): 861 ng/mL
- Cmax ([1]; both sexes, beagle, dog, plasma, po, 4.5 mg/kg, oral dose 4.5 mg/kg, read-out: Cmax): 2880 ng/mL
- Cmax ([1]; both sexes, beagle, dog, plasma, po, 15 mg/kg, oral dose 15 mg/kg, read-out: Cmax): 5310 ng/mL
- AUC0-inf relative to the free base form ([1]; oral): 2-3 times
- Cmax relative to the free base form ([1]; oral): 2-3 times
- Dose-Normalized AUC0-inf ([1]; oral dose 0.5 mg/kg): 4178 ng·kg·h/mL/mg
- Cmax [1, 3]: 607 ng/mL
- Dose-Normalized AUC0-inf [1, 3]: 2960 ng·kg·h/mL/mg
- Dose-Normalized AUC0-inf ([1]; oral dose 1.5 mg/kg): 3726 ng·kg·h/mL/mg
- Dose-Normalized AUC0-inf ([1]; oral dose 4.5 mg/kg): 4390 ng·kg·h/mL/mg
- Dose-Normalized AUC0-inf ([1]; oral dose 15 mg/kg): 2841 ng·kg·h/mL/mg
- enzyme inhibition (RET): potently inhibits
- IC50 (RET; ATP at KM): 18 nM
- enzyme inhibition (SRC): weak inhibition
- IC50 (SRC; ATP at KM): 917 nM
- enzyme inhibition (FLT3): potently inhibits
- IC50 (FLT3; ATP at KM): 25 nM
- enzyme inhibition (EPHA2): potently inhibits
- IC50 (EPHA2; ATP at KM): 61 nM
- enzyme inhibition (BTK): no inhibition
- IC50 (BTK; ATP at KM): > 10000 nM
- enzyme inhibition (TXK): weak inhibition
- IC50 (TXK; ATP at KM): 4800 nM
- enzyme inhibition (ITK): no inhibition
- IC50 (ITK; ATP at KM): > 10000 nM
- enzyme inhibition (TEC): no inhibition
- IC50 (TEC; ATP at KM): > 10000 nM
- enzyme inhibition (PDGFR-beta): potently inhibits
- IC50 (PDGFR-beta; ATP at KM): 17 nM
- clinical safety of single doses [2]: safe and well tolerated
- solubility in water (aqueous solubility study): slightly soluble in water
- aqueous solubility (aqueous solubility study; water, LOQ at 0.001 mg/mL): 20 µg/mL
